Data published in ChEMBL document CHEMBL6134931, “Lysine-Targeted Covalent Strategy Leading to the Discovery of Novel Potent PROTAC-Based PI3Kδ Degraders” (J Med Chem, 2025).
Calls of active or inactive are those of the source. The rule behind the calls is not given here.

Key:
SU-DHL-6 [1] = test: Inhibition of AKT phosphorylation in human SU-DHL-6 cells at 1 to 10000 nM incubated for 24 hrs by Western blot analysis; assay type: cell-based; conditions: dose 1-10000 nM
[2] = target: von Hippel-Lindau disease tumor suppressor/Phosphatidylinositol 4,5-bisphosphate 3-kinase catalytic subunit beta isoform (Homo sapiens, UniProt P42338+P40337); test: PROTAC activity at VHL/p110beta in human SU-DHL-6 cells assessed as induction of p110beta degradation incubated for 24 hrs by Western blot analysis; assay type: cell-based
Chain of von Hippel-Lindau disease tumor suppressor/Phosphatidylinositol 4,5-bisphosphate 3-kinase catalytic subunit beta isoform (P42338 whole entry, canonical isoform): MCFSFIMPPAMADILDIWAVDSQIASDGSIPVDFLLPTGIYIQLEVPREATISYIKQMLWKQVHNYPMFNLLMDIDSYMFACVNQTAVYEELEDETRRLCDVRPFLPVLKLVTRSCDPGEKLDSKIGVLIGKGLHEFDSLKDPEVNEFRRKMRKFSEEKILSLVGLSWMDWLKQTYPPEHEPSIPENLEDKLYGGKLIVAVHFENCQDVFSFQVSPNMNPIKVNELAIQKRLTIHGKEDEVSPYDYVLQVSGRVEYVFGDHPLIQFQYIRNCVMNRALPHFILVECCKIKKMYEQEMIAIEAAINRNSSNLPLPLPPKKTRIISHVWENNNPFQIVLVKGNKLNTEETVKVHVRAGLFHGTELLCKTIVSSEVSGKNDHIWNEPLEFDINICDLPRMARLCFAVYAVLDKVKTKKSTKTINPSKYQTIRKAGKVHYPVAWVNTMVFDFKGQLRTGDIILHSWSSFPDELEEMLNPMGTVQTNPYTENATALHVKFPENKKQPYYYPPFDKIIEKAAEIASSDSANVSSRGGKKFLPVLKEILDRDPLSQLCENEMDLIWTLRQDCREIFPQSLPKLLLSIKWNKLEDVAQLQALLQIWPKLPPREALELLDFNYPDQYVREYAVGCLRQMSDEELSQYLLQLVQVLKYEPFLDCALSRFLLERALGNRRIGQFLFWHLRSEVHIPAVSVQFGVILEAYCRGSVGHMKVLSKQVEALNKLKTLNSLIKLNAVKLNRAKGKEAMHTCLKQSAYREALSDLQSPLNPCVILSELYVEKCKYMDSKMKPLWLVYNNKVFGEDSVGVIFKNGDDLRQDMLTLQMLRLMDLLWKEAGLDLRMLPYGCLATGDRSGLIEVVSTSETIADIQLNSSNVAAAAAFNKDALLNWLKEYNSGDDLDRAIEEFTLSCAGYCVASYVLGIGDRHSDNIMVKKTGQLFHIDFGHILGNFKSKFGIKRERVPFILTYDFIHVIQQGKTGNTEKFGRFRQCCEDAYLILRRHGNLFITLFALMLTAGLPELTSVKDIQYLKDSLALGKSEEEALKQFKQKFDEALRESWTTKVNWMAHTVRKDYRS
Chain of von Hippel-Lindau disease tumor suppressor/Phosphatidylinositol 4,5-bisphosphate 3-kinase catalytic subunit beta isoform (P40337 whole entry, canonical isoform): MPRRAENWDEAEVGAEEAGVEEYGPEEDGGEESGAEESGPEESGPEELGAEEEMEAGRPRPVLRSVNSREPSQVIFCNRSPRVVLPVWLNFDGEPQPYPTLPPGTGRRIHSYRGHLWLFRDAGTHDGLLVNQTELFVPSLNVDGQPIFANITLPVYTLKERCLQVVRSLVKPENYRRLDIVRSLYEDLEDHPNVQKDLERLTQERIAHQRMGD

[3] = target: Phosphatidylinositol 4,5-bisphosphate 3-kinase catalytic subunit alpha isoform (Homo sapiens, UniProt P42336); test: Inhibition of PI3Kalpha (unknown origin) preincubated for 30 mins followed by ATP addition and measured after 1 hrs by ADP-Glo reagent based analysis
Chain of Phosphatidylinositol 4,5-bisphosphate 3-kinase catalytic subunit alpha isoform (P42336 whole entry, canonical isoform): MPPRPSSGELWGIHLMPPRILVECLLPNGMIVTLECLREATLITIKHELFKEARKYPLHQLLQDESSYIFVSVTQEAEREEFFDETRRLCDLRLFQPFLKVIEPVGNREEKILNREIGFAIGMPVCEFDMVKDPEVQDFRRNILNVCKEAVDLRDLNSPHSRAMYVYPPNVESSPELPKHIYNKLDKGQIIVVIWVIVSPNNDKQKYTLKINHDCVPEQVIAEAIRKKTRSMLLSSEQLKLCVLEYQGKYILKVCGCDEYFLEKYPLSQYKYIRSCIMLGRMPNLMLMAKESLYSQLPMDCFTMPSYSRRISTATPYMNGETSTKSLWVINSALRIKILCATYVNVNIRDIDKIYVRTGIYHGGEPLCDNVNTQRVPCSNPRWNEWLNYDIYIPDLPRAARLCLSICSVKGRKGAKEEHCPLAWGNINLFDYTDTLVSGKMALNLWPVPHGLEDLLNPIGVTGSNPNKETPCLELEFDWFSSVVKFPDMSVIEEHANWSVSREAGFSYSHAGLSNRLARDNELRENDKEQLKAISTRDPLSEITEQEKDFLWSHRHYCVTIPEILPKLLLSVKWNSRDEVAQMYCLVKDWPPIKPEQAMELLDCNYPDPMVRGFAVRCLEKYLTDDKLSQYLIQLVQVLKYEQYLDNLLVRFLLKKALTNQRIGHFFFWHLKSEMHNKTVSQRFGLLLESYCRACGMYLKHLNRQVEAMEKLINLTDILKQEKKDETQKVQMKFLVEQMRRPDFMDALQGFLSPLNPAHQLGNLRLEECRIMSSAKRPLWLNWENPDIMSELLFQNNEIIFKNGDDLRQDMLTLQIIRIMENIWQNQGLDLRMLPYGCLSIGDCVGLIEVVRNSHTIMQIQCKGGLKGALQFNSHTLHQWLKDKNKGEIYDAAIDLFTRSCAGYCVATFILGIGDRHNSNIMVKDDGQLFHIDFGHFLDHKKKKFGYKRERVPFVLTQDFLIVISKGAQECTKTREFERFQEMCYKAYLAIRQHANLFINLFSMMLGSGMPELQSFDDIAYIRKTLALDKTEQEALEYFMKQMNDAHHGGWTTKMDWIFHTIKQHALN

SU-DHL-6 [4] = test: Induction of apoptosis in human SU-DHL-6 cells assessed as late apoptotic cells at 0.1 uM incubated for 24 hrs by Annexin V-FITC/PI staining based flow cytometric analysis (reference value: 4.75 %); assay type: functional
[5] = Stability of compound in PBS at pH 7.4 assessed as parent compound remaining measured after 48 hrs by HPLC analysis; assay type: physicochemical; conditions: read-out: Stability
Mus musculus = test: In vivo inhibition of AKT phosphorylation in male nude mouse xenografted with human SU-DHL-6 cells assessed as reduction in p-AKT expression level in tumor administered intraperitoneally for 21 days by Western blot analysis; assay type: functional, organism-based; conditions: dose 2-10 mg/kg, route ip, time 21.0 day
Pfeiffer = test: Antiproliferative activity against human Pfeiffer cells assessed as cell growth inhibition incubated for 72 hrs by MTT assay; assay type: functional
[6] = Toxicity in male nude mouse xenografted with human SU-DHL-6 cells assessed as effect on spleen morphology at 2 to 10 mg/kg, ip administered for 21 days by H and E staining based analysis; assay type: organism-based; conditions: in vivo, 504 h, dose 2-10 mg/kg, time 21 day
SU-DHL-6 [7] = test: Induction of apoptosis in human SU-DHL-6 cells assessed as necrotic cells at 0.01 uM incubated for 24 hrs by Annexin V-FITC/PI staining based flow cytometric analysis (reference value: 0.39 %); assay type: functional
SU-DHL-6 [8] = test: Antitumor activity against human SU-DHL-6 cells xenografted in male nude mouse model assessed as reduction in Ki67 expression in tumor at 2 to 10 mg/kg, ip administered for 21 days by immunohistochemical analysis; assay type: functional, organism-based; conditions: dose 2-10 mg/kg, time 21.0 day
SU-DHL-6 [9] = test: Cell cycle arrest in human SU-DHL-6 cells assessed as increase in G1 phase cells incubated for 24 hrs by PI staining based flow cytometric analysis; assay type: functional; conditions: dose 0.01-1 µM
[10] = Toxicity in male nude mouse xenografted with human SU-DHL-6 cells assessed as effect on heart morphology at 2 to 10 mg/kg, ip administered for 21 days by H and E staining based analysis; assay type: organism-based; conditions: in vivo, 504 h, dose 2-10 mg/kg, time 21 day
SU-DHL-6 [11] = test: Induction of apoptosis in human SU-DHL-6 cells assessed as viable cells at 0.1 uM incubated for 24 hrs by Annexin V-FITC/PI staining based flow cytometric analysis (reference value: 92.54 %); assay type: functional; conditions: read-out: Activity
SU-DHL-6 [12] = test: Induction of apoptosis in human SU-DHL-6 cells assessed as late apoptotic cells at 1 uM incubated for 24 hrs by Annexin V-FITC/PI staining based flow cytometric analysis (reference value: 4.75 %); assay type: functional
[13] = target: Phosphatidylinositol 4,5-bisphosphate 3-kinase catalytic subunit beta isoform (Homo sapiens, UniProt P42338); test: Inhibition of PI3Kbeta (unknown origin) preincubated for 30 mins followed by ATP addition and measured after 1 hrs by ADP-Glo reagent based analysis
Chain of Phosphatidylinositol 4,5-bisphosphate 3-kinase catalytic subunit beta isoform (P42338 whole entry, canonical isoform): as the sequence (P42338 whole entry, canonical isoform) above

SU-DHL-6 [14] = test: Induction of apoptosis in human SU-DHL-6 cells assessed as necrotic cells at 0.1 uM incubated for 24 hrs by Annexin V-FITC/PI staining based flow cytometric analysis (reference value: 0.39 %); assay type: functional
SU-DHL-6 [15] = test: Induction of apoptosis in human SU-DHL-6 cells assessed as necrotic cells at 1 uM incubated for 24 hrs by Annexin V-FITC/PI staining based flow cytometric analysis (reference value: 0.39 %); assay type: functional
SU-DHL-6 [16] = test: Antitumor activity against human SU-DHL-6 cells xenografted in male nude mouse model assessed as tumor growth inhibition at 10 mg/kg, ip administered for 21 days relative to control; assay type: functional; conditions: SU-DHL-6, 504 h, time 21 day, read-out: TGI
SU-DHL-6 [17] = test: Inhibition of AKT phosphorylation in human SU-DHL-6 cells at 0.1 to 1 uM incubated for 24 hrs by Western blot analysis; assay type: cell-based; conditions: dose 0.1-1 µM
SU-DHL-6 [18] = test: Induction of autophagy in human SU-DHL-6 cells assessed as increase in LC3-II to LC3-I ratio at 1 to 100 nM incubated for 24 hrs by Western blot analysis; assay type: functional, cell-based; conditions: dose 1-100 nM
SU-DHL-6 [19] = test: Induction of apoptosis in human SU-DHL-6 cells assessed as late apoptotic cells at 0.01 uM incubated for 24 hrs by Annexin V-FITC/PI staining based flow cytometric analysis (reference value: 4.75 %); assay type: functional
[20] = Toxicity in male nude mouse xenografted with human SU-DHL-6 cells assessed as animal death at 2 to 10 mg/kg, ip administered for 21 days; assay type: organism-based; conditions: in vivo, 504 h, dose 2-10 mg/kg, time 21 day
[21] = target: von Hippel-Lindau disease tumor suppressor/Phosphatidylinositol 4,5-bisphosphate 3-kinase catalytic subunit alpha isoform (Homo sapiens, UniProt P42336+P40337); test: PROTAC activity at VHL/p110alpha in human SU-DHL-6 cells assessed as induction of p110alpha degradation incubated for 24 hrs by Western blot analysis; assay type: cell-based
Chain of von Hippel-Lindau disease tumor suppressor/Phosphatidylinositol 4,5-bisphosphate 3-kinase catalytic subunit alpha isoform (P42336 whole entry, canonical isoform): as the sequence (P42336 whole entry, canonical isoform) above
Chain of von Hippel-Lindau disease tumor suppressor/Phosphatidylinositol 4,5-bisphosphate 3-kinase catalytic subunit alpha isoform (P40337 whole entry, canonical isoform): as the sequence (P40337 whole entry, canonical isoform) above

SU-DHL-6 [22] = test: Antiproliferative activity against human SU-DHL-6 cells assessed as cell growth inhibition incubated for 72 hrs by MTT assay; assay type: functional
[23] = Toxicity in male nude mouse xenografted with human SU-DHL-6 cells assessed as effect on kidney morphology at 2 to 10 mg/kg, ip administered for 21 days by H and E staining based analysis; assay type: organism-based; conditions: in vivo, 504 h, dose 2-10 mg/kg, time 21 day
[24] = Toxicity in male nude mouse xenografted with human SU-DHL-6 cells assessed as effect on liver morphology at 2 to 10 mg/kg, ip administered for 21 days by H and E staining based analysis; assay type: organism-based; conditions: in vivo, 504 h, dose 2-10 mg/kg, time 21 day
SU-DHL-6 [25] = test: Induction of apoptosis in human SU-DHL-6 cells assessed as viable cells at 0.01 uM incubated for 24 hrs by Annexin V-FITC/PI staining based flow cytometric analysis (reference value: 92.54 %); assay type: functional; conditions: read-out: Activity
SU-DHL-6 [26] = test: Cell cycle arrest in human SU-DHL-6 cells assessed as increase in G1 phase cells at 0.1 uM incubated for 24 hrs by PI staining based flow cytometric analysis; assay type: functional
SU-DHL-6 [27] = test: Induction of apoptosis in human SU-DHL-6 cells assessed as early apoptotic cells at 0.01 uM incubated for 24 hrs by Annexin V-FITC/PI staining based flow cytometric analysis (reference value: 2.32 %); assay type: functional
SU-DHL-6 [28] = test: Induction of apoptosis in human SU-DHL-6 cells assessed as early apoptotic cells at 1 uM incubated for 24 hrs by Annexin V-FITC/PI staining based flow cytometric analysis (reference value: 2.32 %); assay type: functional
[29] = Toxicity in male nude mouse xenografted with human SU-DHL-6 cells assessed as effect on body weight at 2 to 10 mg/kg, ip administered for 21 days; assay type: organism-based; conditions: in vivo, 504 h, dose 2-10 mg/kg, time 21 day
SU-DHL-6 [30] = test: Induction of apoptosis in human SU-DHL-6 cells assessed as viable cells at 1 uM incubated for 24 hrs by Annexin V-FITC/PI staining based flow cytometric analysis (reference value: 92.54 %); assay type: functional; conditions: read-out: Activity
SU-DHL-6 [31] = test: Antitumor activity against human SU-DHL-6 cells xenografted in male nude mouse model assessed as tumor growth inhibition at 2 mg/kg, ip administered for 21 days relative to control; assay type: functional; conditions: SU-DHL-6, 504 h, time 21 day, read-out: TGI
SU-DHL-6 [32] = test: Induction of apoptosis in human SU-DHL-6 cells assessed as early apoptotic cells at 0.1 uM incubated for 24 hrs by Annexin V-FITC/PI staining based flow cytometric analysis (reference value: 2.32 %); assay type: functional

## COc1ncc(-c2ccc3ncnc(N[C@H]4CCN(C(=O)C5CCN(CCCCCCCCCC(=O)N[C@H](C(=O)N6C[C@H](O)C[C@H]6C(=O)N[C@@H](C)c6ccc(-c7scnc7C)cc6)C(C)(C)C)CC5)C4)c3n2)cc1C(=O)Oc1ccccc1
SU-DHL-6 [1]
  inhibition: Active
[2]
  DC50: > 1000 nM
[3]
  IC50: 589 nM
SU-DHL-6 [4]
  Activity: 7.11%
[5]
  remaining at 48 h: > 80%
Mus musculus
  inhibition: Dose-dependent-effect
Pfeiffer
  GI50: 350 nM
[6]
  Activity: Non-toxic
SU-DHL-6 [7]
  Activity: 0.51%
SU-DHL-6 [8]
  Activity: Active
SU-DHL-6 [9]
  Activity: Dose-dependent-effect
[10]
  Activity: Non-toxic
SU-DHL-6 [11]
  viability at 0.1 µM: 91.5%
SU-DHL-6 [12]
  Activity: 50.74%
[13]
  IC50: > 10000 nM
SU-DHL-6 [14]
  Activity: 0.65%
SU-DHL-6 [15]
  Activity: 0.76%
SU-DHL-6 [16]
  inhibition in vivo at 10 mg/kg: 73.3%
SU-DHL-6 [17]
  inhibition: Active
SU-DHL-6 [18]
  Activity: Active
SU-DHL-6 [19]
  Activity: 6.92%
[20]
  Activity: Non-toxic
[21]
  DC50: > 1000 nM
SU-DHL-6 [22]
  GI50: 170 nM
[23]
  Activity: Non-toxic
[24]
  Activity: Non-toxic
SU-DHL-6 [25]
  viability at 0.01 µM: 91.7%
SU-DHL-6 [26]
  Activity: Active; More Potent Than 10 Um Idelalisib
SU-DHL-6 [27]
  Activity: 0.61%
SU-DHL-6 [28]
  Activity: 14.65%
[29]
  Activity: Non-toxic
SU-DHL-6 [30]
  viability at 1 µM: 33.9%
SU-DHL-6 [31]
  inhibition in vivo at 2 mg/kg: 59.1%
SU-DHL-6 [32]
  Activity: 0.75%
